Test results reported in patent US20050192279A1, “Pyridazinones as antagonists of alpha4 integrins” (priority 2004, published 2005).

Legend:
[1] = biological target: T1, α4β1 (Homo sapiens, UniProt P05556+P13612); assay: Ramos Cell Adhesion Assay (α4β1 Mediated Adhesion/VCAM-1); assay type: cell-based; conditions: Ramos cell adhesion to hVCAM-1; read-out: α4β1 IC50
T1 construct: Ramos Cell Adhesion Assay (α4β1 Mediated Adhesion/VCAM-1); endogenous in cells; host or cells: Ramos cells
Method: Ramos Cell Adhesion Assay (α4β1 Mediated Adhesion/VCAM-1)
Immulon 96 well plates (Dynex) were coated with 100 μL recombinant hVCAM-1 at 4.0 μg/mL in 0.05 M NaCO3 buffer pH 9.0 overnight at 4° C. (R&D Systems). Plates were washed 2 times in PBS with 1% BSA and blocked for 1 h @ room temperature in this buffer. PBS was removed and compounds to be tested (50 μL) were added at 2× concentration. Ramos cells, (50 μL at 2×10^6/mL) labeled with 5 μM Calcein AM (Molecular Probes) for 1 h at 37° C., were added to each well and allowed to adhere for 1 h at room temperature. Plates were washed 4× in PBS+1% BSA and cells were lysed for 15 minutes in 100 μL of 1 M Tris pH 8.0 with 1% SDS.

[2] = biological target: T2, human α4β7 integrin (Homo sapiens, UniProt P13612+P26010); assay: α4β7-K562 Cell Adhesion Assay (α4β7 Mediated Adhesion/MAdCAM-1); assay type: cell-based; conditions: α4β7-K562 cell adhesion to hMAdCAM-1; read-out: α4β7 IC50
T2 construct: expressed in transfected cells; host or cells: K562 cells, stably transfected
T2 sequence (P13612 34-1032): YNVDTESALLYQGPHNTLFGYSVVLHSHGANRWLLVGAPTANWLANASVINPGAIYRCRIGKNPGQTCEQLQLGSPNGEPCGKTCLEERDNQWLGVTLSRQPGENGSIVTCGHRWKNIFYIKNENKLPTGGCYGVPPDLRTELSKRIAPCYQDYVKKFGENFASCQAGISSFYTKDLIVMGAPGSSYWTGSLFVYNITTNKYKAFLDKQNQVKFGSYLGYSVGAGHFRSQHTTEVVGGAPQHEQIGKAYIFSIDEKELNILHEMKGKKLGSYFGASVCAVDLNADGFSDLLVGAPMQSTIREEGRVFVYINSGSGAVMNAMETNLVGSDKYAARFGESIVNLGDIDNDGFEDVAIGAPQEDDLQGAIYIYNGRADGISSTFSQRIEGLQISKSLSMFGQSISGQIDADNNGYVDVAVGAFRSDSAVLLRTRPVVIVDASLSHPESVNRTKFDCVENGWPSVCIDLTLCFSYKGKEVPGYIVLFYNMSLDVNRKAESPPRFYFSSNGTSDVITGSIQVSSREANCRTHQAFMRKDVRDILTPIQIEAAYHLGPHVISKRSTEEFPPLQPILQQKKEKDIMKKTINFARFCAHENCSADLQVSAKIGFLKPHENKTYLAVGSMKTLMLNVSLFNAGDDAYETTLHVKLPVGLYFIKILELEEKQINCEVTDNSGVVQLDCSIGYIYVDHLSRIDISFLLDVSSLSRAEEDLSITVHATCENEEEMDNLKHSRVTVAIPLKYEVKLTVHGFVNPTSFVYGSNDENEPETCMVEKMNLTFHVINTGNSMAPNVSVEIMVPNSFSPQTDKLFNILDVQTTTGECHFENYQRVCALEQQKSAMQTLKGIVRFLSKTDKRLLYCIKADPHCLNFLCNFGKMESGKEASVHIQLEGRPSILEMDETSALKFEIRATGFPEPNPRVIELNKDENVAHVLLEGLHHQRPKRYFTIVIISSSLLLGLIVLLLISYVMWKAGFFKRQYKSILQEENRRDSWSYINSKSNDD
T2 sequence (P26010 20-798): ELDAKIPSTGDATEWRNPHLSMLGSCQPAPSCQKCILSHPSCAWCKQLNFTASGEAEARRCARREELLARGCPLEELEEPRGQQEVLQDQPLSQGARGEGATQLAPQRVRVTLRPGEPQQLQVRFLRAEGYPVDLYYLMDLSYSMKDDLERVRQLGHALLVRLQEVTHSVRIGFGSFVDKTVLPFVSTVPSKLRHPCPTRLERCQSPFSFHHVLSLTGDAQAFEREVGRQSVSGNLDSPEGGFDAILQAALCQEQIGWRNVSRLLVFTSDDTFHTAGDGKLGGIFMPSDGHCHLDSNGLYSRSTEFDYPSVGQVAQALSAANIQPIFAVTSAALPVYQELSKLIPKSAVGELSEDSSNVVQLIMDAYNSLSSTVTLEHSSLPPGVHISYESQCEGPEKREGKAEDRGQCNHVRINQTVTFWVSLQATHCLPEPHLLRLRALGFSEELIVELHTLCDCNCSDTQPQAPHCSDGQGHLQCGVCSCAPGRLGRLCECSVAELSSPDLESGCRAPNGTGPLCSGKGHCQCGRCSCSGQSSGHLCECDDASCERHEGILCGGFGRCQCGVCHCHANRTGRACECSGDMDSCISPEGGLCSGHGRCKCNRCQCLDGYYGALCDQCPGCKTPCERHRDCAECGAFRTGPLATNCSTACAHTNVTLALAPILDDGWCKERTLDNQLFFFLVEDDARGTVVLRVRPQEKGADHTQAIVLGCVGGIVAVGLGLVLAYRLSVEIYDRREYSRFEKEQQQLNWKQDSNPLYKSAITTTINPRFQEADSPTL
Method: α4β7-K562 Cell Adhesion Assay (α4β7 Mediated Adhesion/MAdCAM-1)
M2 anti-FLAG Antibody Coated 96-well plates (Sigma) were coated for 1 hour at 4° C. with 2-8 μl/well recombinant FLAG-hMAdCAM-1 contained in 100 μL of Dulbecco's PBS, pH 7.4, with 1% BSA and 1 mM Mn ^+2 (PBS-BSA-Mn). Plates were washed once with PBS-BSA-Mn. Buffer was removed and compounds to be tested (50 μL) were added at 2× concentration. Stably transfected K562 cells expressing human α4β7 integrin, (50 μL at 2×10^6/mL) that had been labeled with 100 μg/ml carboxymethyl fluorescein diacetate succinimidyl ester (CFDA-SE; Molecular Probes) for 15 min at 37° C. were added to each well and allowed to adhere for 1 h at room temperature. Plates were washed 4× in PBS-BSA-Mn and then cells were lysed for 2 minutes by addtion of 100 μL of PBS without Ca, Mg supplemented with 0.1 M NaOH.

T1 sequence (P05556 21-798, one chain of several): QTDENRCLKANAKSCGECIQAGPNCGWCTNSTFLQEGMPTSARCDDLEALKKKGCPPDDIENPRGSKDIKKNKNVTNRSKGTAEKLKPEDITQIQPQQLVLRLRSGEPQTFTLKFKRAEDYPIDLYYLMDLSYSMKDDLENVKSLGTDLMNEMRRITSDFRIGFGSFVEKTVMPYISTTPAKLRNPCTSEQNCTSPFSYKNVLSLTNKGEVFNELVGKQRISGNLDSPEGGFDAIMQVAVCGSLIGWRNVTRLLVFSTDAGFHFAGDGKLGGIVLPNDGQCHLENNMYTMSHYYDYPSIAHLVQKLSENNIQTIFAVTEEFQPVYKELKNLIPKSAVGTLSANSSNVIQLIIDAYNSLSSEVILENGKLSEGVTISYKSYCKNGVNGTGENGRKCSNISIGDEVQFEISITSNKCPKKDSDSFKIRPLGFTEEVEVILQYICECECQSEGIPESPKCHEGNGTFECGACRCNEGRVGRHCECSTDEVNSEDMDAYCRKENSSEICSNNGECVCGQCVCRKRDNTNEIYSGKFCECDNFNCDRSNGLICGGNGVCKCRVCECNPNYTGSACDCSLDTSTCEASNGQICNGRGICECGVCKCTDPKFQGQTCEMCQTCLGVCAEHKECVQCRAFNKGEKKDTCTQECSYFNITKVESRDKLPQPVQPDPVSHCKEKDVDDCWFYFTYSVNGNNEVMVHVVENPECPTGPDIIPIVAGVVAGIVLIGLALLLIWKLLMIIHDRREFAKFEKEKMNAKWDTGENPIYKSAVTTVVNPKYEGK

| Compound | IC50 [1] | IC50 [2] |
| --- | --- | --- |
| COc1cnn(C)c(=O)c1-c1ccc(C[C@H](NC(=O)C2(n3c(C)ccc3C)CC2)C(=O)O)cc1 [Cpd 80] | > 5000 nM | 228 nM |
| COc1cnn(C)c(=O)c1-c1ccc(C[C@H](NC(=O)[C@H](C(C)C)N(C)C(=O)OC(C)(C)C)C(=O)O)cc1 [Cpd 48] | 974 nM | 13 nM |
| COc1cnn(C)c(=O)c1-c1ccc(C[C@H](NC(=O)C(c2ccccc2)C(C)C)C(=O)O)cc1 (mixture of isomers) [Cpd 57] | 1220 nM | 18 nM |
| COc1cnn(CCN2CCOCC2)c(=O)c1-c1ccc(C[C@H](NC(=O)[C@H](NC(C)C)C(C)C)C(=O)O)cc1 [Cpd 179] | > 5000 nM | 721 nM |
| COc1ccc2cc(C(=O)N[C@@H](Cc3ccc(-c4c(OC)cnn(C)c4=O)cc3)C(=O)O)c(=O)oc2c1 [Cpd 130] | > 1000 nM | 147 nM |
| COc1cnn(C)c(=O)c1-c1ccc(C[C@H](NC(=O)OCC(C)C)C(=O)O)cc1 [Cpd 175] | > 5000 nM | 591 nM |
| COCCC(=O)N1C2CCC(CC2)[C@H]1C(=O)N[C@@H](Cc1ccc(-c2c(OC)cnn(C)c2=O)cc1)C(=O)O [Cpd 125] | 112 nM | 123 nM |
| COc1cnn(C)c(=O)c1-c1ccc(C[C@H](NC(=O)OCC(C)(C)C)C(=O)O)cc1 [Cpd 171] | > 5000 nM | 536 nM |
| COc1cnn(C)c(=O)c1-c1ccc(C[C@H](NC(=O)OC23CC4CC(CC(C4)C2)C3)C(=O)O)cc1 [Cpd 180] | > 5000 nM | 731 nM |
| COc1cnn(C)c(=O)c1-c1ccc(C[C@H](NC(=O)C(C)(C)NC(N)=O)C(=O)O)cc1 [Cpd 229] | > 5000 nM | 89 nM |
| COc1cnn(C)c(=O)c1-c1ccc(C[C@H](NC(=O)C2CCNCC2)C(=O)O)cc1 [Cpd 198] | > 5000 nM | 1340 nM |
| COc1cnn(C)c(=O)c1-c1ccc(C[C@H](NC(=O)[C@@H](O)C(C)C)C(=O)O)cc1 [Cpd 127] | > 1000 nM | 133 nM |
| COc1cnn(C)c(=O)c1-c1ccc(C[C@H](NC(=O)C(C)(C)NC2CCC3(CC2)OCCO3)C(=O)O)cc1 [Cpd 220] | > 5000 nM | 263 nM |
| CC(C)COC(=O)N[C@@H](Cc1ccc(-c2c(OCC(C)C)cnn(C)c2=O)cc1)C(=O)O [Cpd 111] | > 5000 nM | 82 nM |
| COc1cnn(C)c(=O)c1-c1ccc(C[C@H](NC(=O)[C@H](NC(=O)OC(C)(C)C)C(C)C)C(=O)O)cc1 [Cpd 81, (R)-2-(2-tert-Butoxycarbonylamino-3-methyl-butyrylamino)-3-(S)-[4-(5-methoxy-2-methyl-3-oxo-2,3-dihydro-pyridazin-4-yl)-phenyl]-propionic acid] | 987 nM | 39 nM |
| COc1cnn(C)c(=O)c1-c1ccc(C[C@H](NC(=O)C2(NC(C)C)CCOCC2)C(=O)O)cc1 [Cpd 42] | 936 nM | 59 nM |

The next lines start with the values.

| IC50 [1] | IC50 [2] | Compound |
| --- | --- | --- |
| 1320 nM | 53 nM | O=C(N[C@@H](Cc1ccc(-c2c(-n3cc(Br)cn3)cnn(CCO)c2=O)cc1)C(=O)O)c1c(Cl)cccc1Cl [Cpd 94] |
| > 5000 nM | 114 nM | CCOC(=O)Cc1cnn(C)c(=O)c1-c1ccc(C[C@H](NC(=O)c2c(Cl)cccc2Cl)C(=O)O)cc1 [Cpd 121, (S)-2-(2,6-dichloro-benzoylamino)-3-[4-(5ethoxycarbonylmethyl-2-methyl-3-oxo-2,3-dihydro-pyridazin-4-yl)-phenyl]-propionic acid] |
| > 5000 nM | 865 nM | COc1cnn(C)c(=O)c1-c1ccc(C[C@H](NC(=O)c2n[nH]c3ccccc23)C(=O)O)cc1 [Cpd 187] |
| > 5000 nM | 52 nM | CC(C)(C)C(=O)Cn1ncc(NC2CC2)c(-c2ccc(C[C@H](NC(=O)c3c(Cl)cccc3Cl)C(=O)O)cc2)c1=O [Cpd 92] |
| 250 nM | 8 nM | COc1cnn(C)c(=O)c1-c1ccc(C[C@H](NC(=O)c2c(Cl)cccc2Cl)C(=O)OCCN(C)C)cc1 [Cpd 34] |
| 248 nM | 3 nM | CN1CCC(Oc2cnn(CCO)c(=O)c2-c2ccc(C[C@H](NC(=O)c3c(Cl)cccc3Cl)C(=O)O)cc2)CC1 [Cpd 23] |
| 1020 nM | 41 nM | COc1cn[nH]c(=O)c1-c1ccc(C[C@H](NC(=O)c2c(Cl)cccc2Cl)C(=O)O)cc1 [Cpd 83] |
| 1290 nM | 103 nM | COc1cnn(C)c(=O)c1-c1ccc(C[C@H](NC(=O)c2c(Cl)cccc2Cl)C(=O)OCCN2CCOCC2)cc1 [Cpd 118] |
| 40 nM | 21 nM | Cn1ncc(O)c(-c2ccc(C[C@H](NC(=O)c3c(Cl)cncc3Cl)C(=O)O)cc2)c1=O [Cpd 62] |
| 794 nM | 42 nM | COc1cnn(C(C)(C)C)c(=O)c1-c1ccc(C[C@H](NC(=O)c2c(Cl)cccc2Cl)C(=O)O)cc1 [Cpd 85] |
| 437 nM | 12 nM | O=C(N[C@@H](Cc1ccc(-c2c(OC3CCCC3)cnn(CCO)c2=O)cc1)C(=O)O)c1c(Cl)cccc1Cl [Cpd 43] |
| > 5000 nM | 282 nM | Cn1ncc(CC(=O)O)c(-c2ccc(C[C@H](NC(=O)c3c(Cl)cccc3Cl)C(=O)O)cc2)c1=O [Cpd 152] |
| 376 nM | 3 nM | O=C(N[C@@H](Cc1ccc(-c2c(OCCN3CCOCC3)cnn(CCO)c2=O)cc1)C(=O)O)c1c(Cl)cccc1Cl [Cpd 22] |
| 480 nM | 53.5 nM | Cn1ncc(O)c(-c2ccc(C[C@H](NC(=O)c3c(Cl)cccc3Cl)C(=O)O)cc2)c1=O [Cpd 95, (S)-2-(2,6-Dichloro-benzoylamino)-3-[4-(5-hydroxy-2-methyl-3-oxo-2,3-dihydro-pyridazin-4-yl)-phenyl]-propionic acid] |
| 130 nM | 2 nM | Cn1nc2c(c(-c3ccc(C[C@H](NC(=O)c4c(Cl)cccc4Cl)C(=O)O)cc3)c1=O)NCCO2 [Cpd 13, (S)-2-(2,6-Dichloro-benzoylamino)-3-[4-(2-methyl-3-oxo-3,5,6,7-tetrahydro-2H-pyridazino[3,4-b][1,4]oxazin-4-yl)-phenyl]-propionic acid] |
